Earlier results as cited in PubChem BioAssay AID1259409 (Chemical Carcinogenesis Research Information System (CCRIS), 2018).

System: rodent chemically induced tumor inhibition, incidence and multiplicity
Test: CCRIS tumor inhibitor studies
Conditions: Dose [Inhibitor]: 0, Route [Inhibitor]: ORAL

In the case of C[C@]12CC[C@H](O)CC1=CC[C@@H]1[C@@H]2CC[C@]2(C)C(=O)CC[C@@H]12, the “tumour outcome (control, treated, inhibition, significance)” value (Carcinogen: N-BUTYL-N-(4-HYDROXYBUTYL)NITROSAMINE, 3817-11-6, 0.6% IN DIET BEGINNING 3 D POST CARCINOGEN TREATMENT AND CONTINUING FOR 32 WK (STUDY DURATION: 36 WK), Species: RAT, Strain/Sex: F344/MALE, Target Tissue: Type of Lesion: URINARY BLADDER: PAPILLOMA, Dose [Carcinogen]: 0.05% IN DRINKING WATER FOR 4 WK, Promoter: BUTYLATED HYDROXYANISOLE, 25013-16-5) is given as 12/15 (80%), 6/15 (40%), 50%, p<0.05, the “tumour outcome (control, treated, inhibition, significance)” value (Carcinogen: N-METHYL-N'-NITRO-N-NITROSOGUANIDINE, 70-25-7, 55 PPM IN DIET FOR 6 MO BEGINNING 3 MO POST CARCINOGEN TREATMENT (STUDY DURATION: 9 MO), Species: FISH, Strain/Sex: RAINBOW TROUT/MALE,FEMALE, Target Tissue: Type of Lesion: STOMACH: TUMOR, Dose [Carcinogen]: 35 PPM IN WATER FOR 30 MIN ONCE, Promoter: NONE USED) is given as 38%, 34%, 11%, not significant and the “tumour outcome (control, treated, inhibition, significance)” value (Carcinogen: N-METHYL-N'-NITRO-N-NITROSOGUANIDINE, 70-25-7, 55 PPM IN DIET FOR 6 MO BEGINNING 3 MO POST CARCINOGEN TREATMENT (STUDY DURATION: 9 MO), Species: FISH, Strain/Sex: RAINBOW TROUT/MALE,FEMALE, Target Tissue: Type of Lesion: SWIN BLADDER: TUMOR, Dose [Carcinogen]: 35 PPM IN WATER FOR 30 MIN ONCE, Promoter: NONE USED) is given as 13%, 3%, 77%, p<0.05. The “tumour outcome (control, treated, inhibition, significance)” value (Carcinogen: N-METHYL-N'-NITRO-N-NITROSOGUANIDINE, 70-25-7, 111 PPM IN DIET FOR 6 MO BEGINNING 3 MO POST CARCINOGEN TREATMENT (STUDY DURATION: 9 MO), Species: FISH, Strain/Sex: RAINBOW TROUT/MALE,FEMALE, Target Tissue: Type of Lesion: STOMACH: TUMOR, Dose [Carcinogen]: 35 PPM IN WATER FOR 30 MIN ONCE, Promoter: NONE USED) was 38%, 27%, 29%, not significant, the “tumour outcome (control, treated, inhibition, significance)” value (Carcinogen: N-METHYL-N'-NITRO-N-NITROSOGUANIDINE, 70-25-7, 111 PPM IN DIET FOR 6 MO BEGINNING 3 MO POST CARCINOGEN TREATMENT (STUDY DURATION: 9 MO), Species: FISH, Strain/Sex: RAINBOW TROUT/MALE,FEMALE, Target Tissue: Type of Lesion: SWIM BLADDER: TUMOR, Dose [Carcinogen]: 35 PPM IN WATER FOR 30 MIN ONCE, Promoter: NONE USED) was 13%, 3%, 77%, p<0.05 and the “tumour outcome (control, treated, inhibition, significance)” value (Carcinogen: N-METHYL-N'-NITRO-N-NITROSOGUANIDINE, 70-25-7, 222 PPM IN DIET FOR 6 MO BEGINNING 3 MO POST CARCINOGEN TREATMENT (STUDY DURATION: 9 MO), Species: FISH, Strain/Sex: RAINBOW TROUT/MALE,FEMALE, Target Tissue: Type of Lesion: STOMACH: TUMOR, Dose [Carcinogen]: 35 PPM IN WATER FOR 30 MIN ONCE, Promoter: NONE USED) was 38%, 31%, 18%, not significant. For the same compound, the “tumour outcome (control, treated, inhibition, significance)” value (Carcinogen: N-METHYL-N'-NITRO-N-NITROSOGUANIDINE, 70-25-7, 222 PPM IN DIET FOR 6 MO BEGINNING 3 MO POST CARCINOGEN TREATMENT (STUDY DURATION: 9 MO), Species: FISH, Strain/Sex: RAINBOW TROUT/MALE,FEMALE, Target Tissue: Type of Lesion: SWIM BLADDER: TUMOR, Dose [Carcinogen]: 35 PPM IN WATER FOR 30 MIN ONCE, Promoter: NONE USED) was 13%, 3%, 77%, p<0.05, the “tumour outcome (control, treated, inhibition, significance)” value (Carcinogen: N-METHYL-N'-NITRO-N-NITROSOGUANIDINE, 70-25-7, 444 PPM IN DIET FOR 6 MO BEGINNING 3 MO POST CARCINOGEN TREATMENT (STUDY DURATION: 9 MO), Species: FISH, Strain/Sex: RAINBOW TROUT/MALE,FEMALE, Target Tissue: Type of Lesion: STOMACH: TUMOR, Dose [Carcinogen]: 35 PPM IN WATER FOR 30 MIN ONCE, Promoter: NONE USED) was 38%, 36%, 5%, not significant and the “tumour outcome (control, treated, inhibition, significance)” value (Carcinogen: N-METHYL-N'-NITRO-N-NITROSOGUANIDINE, 70-25-7, 444 PPM IN DIET FOR 6 MO BEGINNING 3 MO POST CARCINOGEN TREATMENT (STUDY DURATION: 9 MO), Species: FISH, Strain/Sex: RAINBOW TROUT/MALE,FEMALE, Target Tissue: Type of Lesion: SWIM BLADDER: TUMOR, Dose [Carcinogen]: 35 PPM IN WATER FOR 30 MIN ONCE, Promoter: NONE USED) was 13%, 8%, 38%, not significant. The “tumour outcome (control, treated, inhibition, significance)” value (Carcinogen: N-METHYL-N'-NITRO-N-NITROSOGUANIDINE, 70-25-7, 888 PPM IN DIET FOR 6 MO BEGINNING 3 MO POST CARCINOGEN TREATMENT (STUDY DURATION: 9 MO), Species: FISH, Strain/Sex: RAINBOW TROUT/MALE,FEMALE, Target Tissue: Type of Lesion: STOMACH: TUMOR, Dose [Carcinogen]: 35 PPM IN WATER FOR 30 MIN ONCE, Promoter: NONE USED) was 38%, 26%, 32%, not significant, the “tumour outcome (control, treated, inhibition, significance)” value (Carcinogen: N-METHYL-N'-NITRO-N-NITROSOGUANIDINE, 70-25-7, 888 PPM IN DIET FOR 6 MO BEGINNING 3 MO POST CARCINOGEN TREATMENT (STUDY DURATION: 9 MO), Species: FISH, Strain/Sex: RAINBOW TROUT/MALE,FEMALE, Target Tissue: Type of Lesion: SWIM BLADDER: TUMOR, Dose [Carcinogen]: 35 PPM IN WATER FOR 30 MIN ONCE, Promoter: NONE USED) was 13%, 6%, 54%, not significant and the “tumour outcome (control, treated, inhibition, significance)” value (Carcinogen: N-METHYL-N-NITROSOUREA, 684-93-5, 0.1% IN DIET FOR DURATION OF STUDY BEGINNING 1 WK PRIOR TO CARCINOGEN DOSE (STUDY DURATION: 187 D), Species: RAT, Strain/Sex: SPRAGUE-DAWLEY/FEMALE, Target Tissue: Type of Lesion: MAMMARY GLAND: CARCINOMA, Dose [Carcinogen]: 50 MG/KG ONCE AT 50 D OF AGE, Promoter: NONE USED) was 100%, 68%, 32%, p<0.05. For the same compound, the “tumour outcome (control, treated, inhibition, significance)” value (Carcinogen: N-METHYL-N-NITROSOUREA, 684-93-5, 0.2% IN DIET FOR 2 WK BEGINNING 1 WK PRIOR TO CARCINOGEN DOSE (STUDY DURATION: 187 D), Species: RAT, Strain/Sex: SPRAGUE-DAWLEY/FEMALE, Target Tissue: Type of Lesion: MAMMARY GLAND: CARCINOMA, Dose [Carcinogen]: 50 MG/KG ONCE AT 50 D OF AGE, Promoter: NONE USED) was 100%, 100%, 0%, not significant, the “tumour outcome (control, treated, inhibition, significance)” value (Carcinogen: N-METHYL-N-NITROSOUREA, 684-93-5, 0.2% IN DIET FOR DURATION OF STUDY BEGINNING 1 WK POST CARCINOGEN DOSE (STUDY DURATION: 180 D), Species: RAT, Strain/Sex: SPRAGUE-DAWLEY/FEMALE, Target Tissue: Type of Lesion: MAMMARY GLAND: CARCINOMA, Dose [Carcinogen]: 50 MG/KG ONCE AT 50 D OF AGE, Promoter: NONE USED) was 100%, 67%, 33%, p<0.05 and the “tumour outcome (control, treated, inhibition, significance)” value (Carcinogen: N-METHYL-N-NITROSOUREA, 684-93-5, 0.2% IN DIET FOR DURATION OF STUDY BEGINNING 1 WK PRIOR TO CARCINOGEN DOSE (STUDY DURATION: 187 D), Species: RAT, Strain/Sex: SPRAGUE-DAWLEY/FEMALE, Target Tissue: Type of Lesion: MAMMARY GLAND: CARCINOMA, Dose [Carcinogen]: 50 MG/KG ONCE AT 50 D OF AGE, Promoter: NONE USED) was 100%, 48%, 52%, p<0.05.
